Assay results reported in patent US11160887B2, “Compositions for use in diagnosing and treating melanoma, including metastatic melanoma and methods related to same” (UNM RAINFOREST INNOVATIONS, priority 2008, dated 2021).
Where two headings read alike, the source gives them in different places. Residues, ends and D or L forms follow the SMILES beside them.

Experiments:
[1] = Biodistribution in B16/F1 murine melanoma-bearing C57 mice; format: in vivo, mouse; settings: female, C57, mouse, iv, 0.037 MBq, total radioactivity; for tissue uptake: all time points (2, 4, 24 h)
Procedure: (§1) Biodistribution Studies: All the animal studies were conducted in compliance with Institutional Animal Care and Use Committee approval. The pharmacokinetics of ^111In-DOTA-CycMSH and ^111In-DOTA-GlyGlu-CycMSH were determined in B16/F1 murine melanoma-bearing C57 female mice (Harlan, Indianapolis, Ind.). C57 mice were inoculated subcutaneously with 1×10^6 B16/F1 murine melanoma cells in the right flank. After 10 days, when the weight of tumors reached approximately 0.2 g, 0.037 MBq of ^111In-DOTA-CycMSH or ^111In-DOTA-GlyGlu-CycMSH was injected into each mouse through the tail vein. Groups of 5 mice were sacrificed at 2, 4 and 24 h post-injection, and tumors and organs of interest were harvested, weighed and counted. Blood values were taken as 6.5% of the whole-body weight. The tumor uptake specificity of ^111In-DOTA-CycMSH and ^111In-DOTA-GlyGlu-CycMSH was determined by blocking tumor uptake with the co-injection of 10 μg (6.07 nmol) of unlabeled NDP-MSH, a linear α-MSH peptide analogue with picomolar affinity for the MC1 receptors present on murine melanoma cells. Statistical analysis was performed using the Student's t-test for unpaired data.

[2] = tested on: B16/F1 murine melanoma-bearing C57 mice; experiment: as above; format: in vivo, mouse
Procedure: as §1

[3] = Biodistribution in normal C57 mice; format: in vivo; settings: C57, mouse, lung, iv, 0.037 MBq, total radioactivity
Procedure: Biodistribution Studies: All the animal studies were conducted in compliance with Institutional Animal Care and Use Committee approval. B16/F10 pulmonary metastatic melanoma model was established by injecting 0.2 million of cultured B16/F10 cells into each C57 mouse (Harlan, Indianapolis, Ind.) through the tail vein. The B16/F10 pulmonary metastatic melanoma-bearing C57 mice were used for biodistribution studies 16 days after the cell injection. The pharmacokinetics of ^111In-DOTA-GlyGlu-CycMSH was determined in B16/F10 pulmonary metastatic melanoma-bearing and normal C57 mice. HPLC-purified 0.037 MBq of ^111In-DOTA-GlyGlu-CycMSH was injected into each mouse through the tail vein. Groups of 5 mice were sacrificed at 2, 4 and 24 h post-injection, and tumors and organs of interest were harvested, weighed and counted. Blood values were taken as 6.5% of the whole-body weight. Statistical analysis was performed using the Student's t-test for unpaired data.

[4] = tested on: B16/F10 pulmonary melanoma metastases; format: in vivo, mouse; settings: mouse, in vivo
Procedure: Metastatic Melanoma Imaging: A pulmonary metastatic melanoma-bearing mouse was used for [^18F]FDG PET imaging 16 days after the cell injection and used for ^111In-DOTA-GlyGlu-CycMSH SPECT/CT imaging on next day (a time interval of 26 h) to compare the difference in detection efficiency between [^18F]FDG and ^111In-DOTA-GlyGlu-CycMSH. The mouse was injected with 35.15 MBq of commercial [^18F]FDG (Biotech, N. Mex.) via the tail vein. At 1 h post-injection, the mouse was anesthetized with 1.5% isoflurane and placed in the prone position near the center of the field of view of small animal PET (LabPET™) (Gamma Medica-Ideas, Sherbrooke, Quebec). A 30-min static scan was acquired, and the image was reconstructed by maximum likelihood estimation method (MLEM). The mouse was returned to the cage for recovery after the ^18F-FDG PET imaging study was completed. The same mouse was injected with 24.05 MBq of ^111In-DOTA-GlyGlu-CycMSH via the tail vein 24 h after the ^18F-FDG PET imaging study. The mouse was anesthetized with 1.5% isoflurane for small animal SPECT/CT (Nano-SPECT/CT®, Bioscan) imaging 2 h post-injection. The 6-min CT imaging was immediately followed by the focused SPECT imaging of lung. The SPECT scans of 24 projections were acquired and total acquisition time was 45 min. After the focused lung imaging, the mouse was sacrificed with CO2 inhalation for whole-body SPECT/CT imaging. The 9-min CT imaging was immediately followed by the SPECT imaging of whole-body. Reconstructed data from SPECT and CT were visualized and co-registered using InVivoScope (Bioscan, Washington D.C.). Necropsy analysis of the mouse was performed to confirm the pulmonary metastatic melanoma lesions after the SPECT/CT imaging studies were completed. To monitor the development of pulmonary melanoma metstases with ^111In-DOTA-GlyGlu-CycMSH, a pulmonary metastatic melanoma-bearing mouse was injected with 10.36 MBq of ^111In-DOTA-GlyGlu-CycMSH through the tail vein for small animal SPECT/CT imaging 20 days after the cell injection. […]

[5] = Urinary metabolites by HPLC in B16/F1 melanoma-bearing C57 mice; format: in vivo, mouse; settings: urine, 2 h post-injection
Procedure: Urinary Metabolites of ^111In-DOTA-CycMSH and ^111In-DOTA-GlyGlu-CycMSH: One hundred microliter of HPLC purified ^111In-DOTA-CycMSH (0.74-1.11 MBq, 0.82-1.12 ng) or ^111In-DOTA-GlyGlu-CycMSH (0.74-1.11 MBq, 0.90-1.35 ng) was injected into each B16/F1 murine melanoma-bearing C57 mouse through the tail vein. At 2 h after dose administration, mice were sacrificed and the urine was collected. The radioactive metabolites in the urine were analyzed by injecting aliquots of urine into HPLC. A 20-minute gradient of 16-26% acetonitrile/20 mM HCl was used for the urine analysis.

Compound: CCCC[C@@H]1NC(=O)[C@@H](NC(=O)[C@H](CCC(=O)O)NC(=O)CNC(=O)CN2CCN(CC(=O)O)CCN(CC(=O)O)CCN(CC(=O)O)CC2)CCCCNC(=O)[C@H](CC(=O)O)NC(=O)[C@H](C(C)C)NC(=O)[C@@H]2CCCN2C(=O)[C@H](CCCNC(=N)N)NC(=O)CNC(=O)[C@H](Cc2c[nH]c3ccccc23)NC(=O)[C@H](CCCNC(=N)N)NC(=O)[C@@H](Cc2ccccc2)NC(=O)[C@H](Cc2c[nH]cn2)NC(=O)[C@H](CCC(=O)O)NC1=O [^111In-DOTA-GlyGlu-CycMSH, metal not drawn] (HELM PEPTIDE1{[O=C(O)CN1CCN(CC(=O)O)CCN(CC(=O)[*:2])CCN(CC(=O)O)CC1].G.E.K.[Nle].E.H.[dF].R.W.G.R.P.V.D}$PEPTIDE1,PEPTIDE1,4:R3-15:R2$$$V2.0)
- tissue uptake ([1]; bone, read-out: bone uptake): < 0.2 %ID/g
- kidney uptake at 24 h ([1]; kidney, 24 h after dose administration): 9.06 ± 1.82 %ID/g
- tissue uptake ([1]; normal organs except the kidneys, read-out: normal organ uptakes except for the kidneys): < 0.8 %ID/g
- tissue uptake at 2 h ([1]; tumor, 2 h post-injection, tail vein): 10.4 ± 1.4 %ID/g
- tissue uptake at 4 h ([1]; tumor, 4 h post-injection, tail vein): 7.4 ± 0.43 %ID/g
- tissue uptake at 24 h ([1]; tumor, 24 h post-injection, tail vein): 2.37 ± 0.28 %ID/g
- dose excreted ([1]; urine, by 2 h post-injection, read-out: injected radioactivity cleared through the urinary system): ~90%
- tumor uptake with NDP co-injection as % of the tumor uptake without NDP co-injection ([2]; 10 μg (6.07 nmol) non-radiolabeled NDP co-injection, 2 h after dose administration): 2.6%
- tumor uptake ([2]; 2 h post-injection, tail vein): 10.40±1.40 % ID/g
- kidney uptake higher than 111In-DOTA-ReCCMSH ([2]; 4 h post-injection): 29%
- less renal uptake than 111In-DOTA-CycMSH ([2]; 4 h post-injection): 44%
- renal uptake as % of that of 111In-DOTA-CMSH ([2]; 4 h post-injection): 34%
- tissue uptake at 2 h ([3]; 2 h post-injection): 0.08 ± 0.08 %ID/g
- tissue uptake at 4 h ([3]; 4 h post-injection): 0.05 ± 0.05 %ID/g
- tissue uptake at 24 h ([3]; 24 h post-injection): 0.03 ± 0.02 %ID/g
- accumulation of activity in normal organs in whole-body image [4]: extremely low except for the kidneys
- urinary metabolites by RP-HPLC [5]: transformed to two more polar metabolites
